Measured values from PubChem BioAssay AID2253 (Southern Research Specialized Biocontainment Screening …, 2010).

tested on: THP-1 viability, CellTiter-Glo luminescence, 72 h; test: THP-1 cell cytotoxicity, dose response, cytotoxicity control for Salmonella PhoP regulon inhibitors, S. typhimurium screen hits (AID 2253)

| Structure (SMILES) | EC50 [µM] |
| --- | --- |
| Cc1cc(/C=N/NC(=O)c2cccc([N+](=O)[O-])c2)c(C)n1-c1ccc(Cl)cc1Cl | 43.9 |
| C/C(=N\NC(=S)Nc1ccc(F)cc1)c1ccc2c(c1)OCCO2 | 10.5 |
| OCc1ccc(O)c2ncccc12 | 3.26 |
| Cc1cc(-c2nnc(-c3ccccc3)c(-c3ccccc3)n2)c(C)o1 | 40.3 |
| CO[C@H]1C=CO[C@@]2(C)Oc3c(C)c(O)c4c(O)c(c(C=NN5CCN(C)CC5)c(O)c4c3C2=O)NC(=O)C(C)=CC=C[C@H](C)[C@H](O)[C@@H](C)[C@@H](O)[C@@H](C)[C@H](OC(C)=O)[C@@H]1C | 33 |
| Oc1c(C(Nc2ccccn2)c2ccccn2)ccc2cccnc12 (stereo not given) | 4.23 |
| Nc1ccc2c(c1)C(=O)C(=O)c1ccccc1-2 | 2.23 |
| Cc1ccc2cccnc2c1NC(=S)NC(=O)c1ccccc1 | 25.2 |
| Cc1nc2c(C(=O)NCCC(C)C)c[nH]n2c(=O)c1Cc1ccccc1F | 30.7 |
| O=[N+]([O-])c1cc(F)c2cccnc2c1O | 30.5 |
| O=C(NNc1nc(-c2ccccc2)cs1)c1ccccc1 | 26.1 |
| C(=C\c1ccccc1)/C=N/Nc1nc2ccccc2[nH]1 | 15.5 |
| C/C(=N\NC(=O)c1cc2ccccc2cc1O)c1ccccn1 | 0.76 |
| COc1ccc(/C=N/Nc2cc(C)nc3c(C)cccc23)cc1 | 7.25 |
| O=C(Nc1ccc(Br)cc1)c1ccc(F)c(S(=O)(=O)NCc2cccs2)c1 | 21.7 |
| CNC[C@H](Cc1ccccc1)NC[C@@H](Cc1cccc2ccccc12)NCCc1ccc(C)cc1 | 4.75 |
| CCCCCCCCCCCCCCCC[N+](C)(C)CCN(Cc1ccc(OC)cc1)c1ncccn1 | 0.51 |
| CC(=O)n1cc(/C=N/NC(=O)c2sc(C)nc2C)c2ccccc21 | 11.6 |
| COc1ccc(OC)c(C2C=C(C34CC5CC(CC(C5)C3)C4)NC(=S)N2)c1 (stereo not given) | 49.8 |
| CCn1c(C)cc(=S)c2ccccc21 | 48.2 |
| CC[n+]1c(/C=C/C=C/c2ccc(N(C)C)cc2)sc2ccccc21 | 1.5 |
| C=CCNc1ncnc2c1[nH]c1ccc(Cl)cc12 | 12.2 |
| CCn1c2ccccc2c2cc(N)ccc21 | 16.1 |
| Cc1ccc2c(c1)[nH]c1c(N3CCN(Cc4ccccc4)CC3)ncnc12 | 18.9 |
| CN(C)c1ccc(/C=C/c2ccc3c4ccccc4ccc3[n+]2-c2ccccc2)cc1 | 0.26 |
| Cc1ccc(C(C[N+](=O)[O-])c2c(C)cc3ccccn23)cc1 (stereo not given) | 15.4 |
| O=S1(=O)CCC(NC(=S)SCCOc2ccccc2)C1 (stereo not given) | 16.2 |
| Cc1ccc(O)c(-c2cc(-c3ccccc3C)[nH]n2)c1 | 19.9 |

| Structure (SMILES) | EC50 [µM] |
| --- | --- |
| COc1ccc(/C=N/Nc2cc(C)nc3ccccc23)cc1 | 7.59 |
| O=C(N/N=C/C1CC=CCC1)c1ccc(Cl)cc1O (stereo not given) | 26.4 |
| CN(C)S(=O)(=O)c1cccc(NC(=S)N/N=C/c2cc(Br)ccc2O)c1 | 0.65 |
| CC(C)c1ccc(C2C3CSCC=C3C(C#N)=C(N)C2(C#N)C#N)cc1 (stereo not given) | 39.7 |
| Cc1[nH]c2ccccc2c1C(=O)COC(=O)c1ccc([N+](=O)[O-])s1 | 47.5 |
| CN1CCN(C(c2ccc(C(F)(F)F)cc2)c2cc(Cl)c3cccnc3c2O)CC1 (stereo not given) | 2.96 |
| c1ccc(CNc2nc(N3CCN(Cc4ccccc4)CC3)nc3ccccc23)cc1 | 21.6 |
| CN1CCN(C(c2ccc(Cl)cc2)c2cc(Cl)c3cccnc3c2O)CC1 (stereo not given) | 1.66 |
| O=C(CSc1nc(Nc2ccccc2)nc(N2CCOCC2)n1)Nc1ccc([N+](=O)[O-])cc1 | 37.1 |
| O=c1c(Cl)c(Cl)cnn1-c1ccccc1 | 1.41 |
| COc1cccc(/C=N/Nc2ncc(C(F)(F)F)cc2Cl)c1O | 0.97 |
| O=C(N/N=C/c1cc(O)ccc1Br)c1cccnc1 | 2.25 |
| COc1ccc(C(=O)On2c(-c3ccc(Br)cc3)nc3ccccc3c2=O)cc1 | 12.8 |
| C#CCOCCOCCOCCNc1nc(N2CCN(C(=O)CCCCCCCCCCNC(=O)[C@H](CCCCN)n3cc(C[C@@H](C)CC)nn3)CC2)nc(N2CCN(C(=O)CCCCCCCCCCNC(=O)[C@H](CCCN=C(N)N)n3cc(C[C@@H](C)CC)nn3)CC2)n1 | 3.88 |
| Cc1[nH]nc2c1C(c1cc(Br)cs1)C(C#N)=C(N)O2 (stereo not given) | 11.2 |
| Cc1cc(O)ccc1Nc1nc2ccccc2nc1Nc1ccc(O)cc1C | 24.4 |
| CN(O)/C=c1/ccc2c(n1)C(=O)C=CC=2 | 23.3 |
| CCOc1cccc(CNc2ccc(O)cc2)c1OCc1ccc(Cl)cc1Cl | 26.9 |
| CCCc1cc(-c2nc(N)ncc2-c2ccc3c(c2)OCCCO3)c(O)cc1OC | 19.9 |
| Oc1ccc(CN2CCCc3ccccc32)c2cccnc12 | 3.37 |
| O=C(N/N=C/c1ccc(Sc2ccccn2)o1)c1cc2ccccc2cc1O | 35.4 |
| C#CCOCCOCCOCCNc1nc(N2CCN(C(=O)CCCCCCCCCCNC(=O)[C@H]([C@@H](C)CC)n3cc(CCCCN=C(N)N)nn3)CC2)nc(N2CCN(C(=O)CCCCCCCCCCNC(=O)[C@H]([C@@H](C)CC)n3cc(CCCCN=C(N)N)nn3)CC2)n1 | 4.39 |
| O=C(N/N=C/c1sc2ccccc2c1O)c1cccc2ccccc12 | 3.51 |
| O=C1c2cccc(OCC(=O)N3N=C(c4cccs4)CC3c3ccc(F)cc3)c2CCN1Cc1cccnc1 (stereo not given) | 47.9 |
| O=C1NC(=S)S/C1=C\C=C\c1ccc([N+](=O)[O-])o1 | 9.07 |
| COc1c(N2CCN(C(=S)NCc3ccccc3)C(C)C2)c(F)cc2c(=O)c(C(=O)O)cn(C3CC3)c12 (stereo not given) | 15.4 |
| O=c1ccc2ccc(Oc3ccc([N+](=O)[O-])cc3[N+](=O)[O-])cc2o1 | 7.86 |
